Experimental findings from ChEMBL document CHEMBL1687692, “Exploring α7-Nicotinic Receptor Ligand Diversity by Scaffold Enumeration from the Chemical Universe Database GDB” (ACS Med Chem Lett, 2010) are described below.

The target in experiment [1] is T1, Neuronal acetylcholine receptor subunit alpha-7 (Homo sapiens, UniProt P36544). Briefly: Competitive antagonist activity at human alpha7 nAChR expressed in Xenopus oocyte assessed as inhibition of ACh-induced current by voltage clamp method. In kind it is functional.
The target of experiment [2] is T1, Neuronal acetylcholine receptor subunit alpha-7. In words: Non competitive antagonist activity at human alpha7 nAChR expressed in Xenopus oocyte assessed as inhibition of ACh-induced current by voltage clamp method. In kind it is functional.
Experiment [3] shares this target. In words: Antagonist activity at human alpha7 nAChR expressed in Xenopus oocyte assessed as inhibition of ACh-induced current by voltage clamp method. The class given is functional.
The target is the same in experiment [4]. Briefly: Partial agonist activity at human alpha7 nAChR expressed in Xenopus oocyte […] current by voltage clamp method. In kind it is functional.
Experiment [5] shares this target. In words: Binding affinity to human alpha7 nAChR.

Molecules are shown by their SMILES.

T1 sequence (P36544 whole entry): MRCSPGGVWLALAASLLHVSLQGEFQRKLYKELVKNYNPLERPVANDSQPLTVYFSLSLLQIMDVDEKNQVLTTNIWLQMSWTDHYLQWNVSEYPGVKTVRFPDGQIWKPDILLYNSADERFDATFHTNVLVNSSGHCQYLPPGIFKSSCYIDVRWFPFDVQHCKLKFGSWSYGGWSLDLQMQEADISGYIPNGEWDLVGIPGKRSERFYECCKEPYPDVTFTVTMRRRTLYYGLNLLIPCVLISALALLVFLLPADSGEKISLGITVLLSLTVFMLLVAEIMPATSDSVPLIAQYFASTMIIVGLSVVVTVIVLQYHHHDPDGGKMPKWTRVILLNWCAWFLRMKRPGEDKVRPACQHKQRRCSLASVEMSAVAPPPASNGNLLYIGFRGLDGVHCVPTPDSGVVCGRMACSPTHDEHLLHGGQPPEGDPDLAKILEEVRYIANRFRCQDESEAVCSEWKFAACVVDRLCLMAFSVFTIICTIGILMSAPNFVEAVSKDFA

The IC50 is the concentration needed to halve the response being measured. On to `O=C(Oc1ccc(Br)cc1)N1CCCN2CCC[C@H]2C1`, for which the IC50 in experiment [1] was determined as 5.6 µM.
With `C[C@H]1CN2CCCC[C@@H]2CN1C(=O)c1ccc2c(c1)OCCO2`, the IC50 in experiment [2] came out at 6.1 µM.
For the compound `CC(C)N1CCCCN(C(=O)c2ccc(Cl)cc2)CC1`, the 50% inhibitory concentration (IC50) in experiment [3] was found to be 7 µM.
As for `O=C(NCC12CCCN1CCC2)c1ccc(Cl)cc1`, in experiment [3], the IC50 turned out to be 7.2 µM.
One may read the EC50 as the concentration that produces a half-maximal response. By Ki is commonly meant the dissociation constant of the complex between target and ligand, obtained from inhibition or displacement. In the case of `O=C(Oc1ccc(Br)cc1)N1CCN2CCC1CC2` [SSR180711], the concentration giving a half-maximal response (EC50) in experiment [4] was found to be 4.4 µM. The same compound returned a Ki in experiment [5] of 14 nM.
